From US7259161B2, “Compositions useful as inhibitors of JAK and other protein kinases” (Vertex Pharmaceuticals Incorporated, priority 2002, dated 2007)

What follows are compounds tested against JNK3 (Homo sapiens, UniProt P53779) (assay: JNK3 inhibition assay (spectrophotometric coupled-enzyme assay)). Settings: 10 μM ATP, 10 nM activated JNK3.
Type: biochemical
Procedure: Compounds were assayed for the inhibition of JNK3 by a spectrophotometric coupled-enzyme assay. In this assay, a fixed concentration of activated JNK3 (10 nM) was incubated with various concentrations of a potential inhibitor dissolved in DMSO for 10 minutes at 30° C. in a buffer containing 0.1 M HEPES buffer, pH 7.5, containing 10 mM MgCl2, 2.5 mM phosphoenolpyruvate, 200 μM NADH, 150 μg/mL pyruvate kinase, 50 μg/mL lactate dehydrogenase, and 200 μM EGF receptor peptide. The EGF receptor peptide is a phosphoryl acceptor in the JNK3-catalyzed kinase reaction. The reaction was initiated by the addition of 10 μM ATP and the assay plate is inserted into the spectrophotometer's assay plate compartment that was maintained at 30° C. The decrease of absorbance at 340 nm was monitored as a function of time. The rate data as a function of inhibitor concentration was fitted to competitive inhibition kinetic model to determine the Ki.

Chain of JNK3 (P53779 whole entry, species assumed): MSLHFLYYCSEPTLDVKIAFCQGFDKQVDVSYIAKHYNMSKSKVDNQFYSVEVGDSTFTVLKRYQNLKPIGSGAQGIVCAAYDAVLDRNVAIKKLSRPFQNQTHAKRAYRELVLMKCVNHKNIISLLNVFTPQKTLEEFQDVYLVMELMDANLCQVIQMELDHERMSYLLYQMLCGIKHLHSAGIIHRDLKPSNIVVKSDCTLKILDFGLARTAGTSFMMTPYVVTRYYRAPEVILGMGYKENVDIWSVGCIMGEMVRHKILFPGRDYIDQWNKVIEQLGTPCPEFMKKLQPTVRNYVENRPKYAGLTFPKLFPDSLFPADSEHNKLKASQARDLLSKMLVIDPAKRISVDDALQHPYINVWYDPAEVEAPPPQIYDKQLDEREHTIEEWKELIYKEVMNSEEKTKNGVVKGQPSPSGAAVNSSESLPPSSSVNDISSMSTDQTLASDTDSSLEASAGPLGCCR

`CN1C(=O)COc2ccc(-c3ccnc(Nc4ccccc4)n3)cc21` [IVa-1] and `CN1C(=O)COc2ccc(-c3ccnc(Nc4cccc(F)c4)n3)cc21` [IVa-2] cannot be ordered by Ki: less than 1 µM for the first, less than 1 µM for the second.

`Cc1cccc(Nc2nccc(-c3ccc4c(c3)N(C)C(=O)CO4)n2)c1` [IVa-3] and `Cc1ccc(Nc2nccc(-c3ccc4c(c3)N(C)C(=O)CO4)n2)cc1` [IVa-4] cannot be ordered by Ki: less than 1 µM for the first, less than 1 µM for the second.

`COc1ccc(Nc2nccc(-c3ccc4c(c3)N(C)C(=O)CO4)n2)cc1` [IVa-5] and `CN1C(=O)COc2ccc(-c3ccnc(Nc4cccc(S(N)(=O)=O)c4)n3)cc21` [IVa-22] cannot be ordered by Ki: less than 1 µM for the first, less than 1 µM for the second.

These compounds were tested against T1, JAK3 (Homo sapiens, UniProt P52333) (assay: JAK3 inhibition assay). Settings: 2 μM ATP, ELISA read at 450 nm.
T1 sequence (P52333 1-1124): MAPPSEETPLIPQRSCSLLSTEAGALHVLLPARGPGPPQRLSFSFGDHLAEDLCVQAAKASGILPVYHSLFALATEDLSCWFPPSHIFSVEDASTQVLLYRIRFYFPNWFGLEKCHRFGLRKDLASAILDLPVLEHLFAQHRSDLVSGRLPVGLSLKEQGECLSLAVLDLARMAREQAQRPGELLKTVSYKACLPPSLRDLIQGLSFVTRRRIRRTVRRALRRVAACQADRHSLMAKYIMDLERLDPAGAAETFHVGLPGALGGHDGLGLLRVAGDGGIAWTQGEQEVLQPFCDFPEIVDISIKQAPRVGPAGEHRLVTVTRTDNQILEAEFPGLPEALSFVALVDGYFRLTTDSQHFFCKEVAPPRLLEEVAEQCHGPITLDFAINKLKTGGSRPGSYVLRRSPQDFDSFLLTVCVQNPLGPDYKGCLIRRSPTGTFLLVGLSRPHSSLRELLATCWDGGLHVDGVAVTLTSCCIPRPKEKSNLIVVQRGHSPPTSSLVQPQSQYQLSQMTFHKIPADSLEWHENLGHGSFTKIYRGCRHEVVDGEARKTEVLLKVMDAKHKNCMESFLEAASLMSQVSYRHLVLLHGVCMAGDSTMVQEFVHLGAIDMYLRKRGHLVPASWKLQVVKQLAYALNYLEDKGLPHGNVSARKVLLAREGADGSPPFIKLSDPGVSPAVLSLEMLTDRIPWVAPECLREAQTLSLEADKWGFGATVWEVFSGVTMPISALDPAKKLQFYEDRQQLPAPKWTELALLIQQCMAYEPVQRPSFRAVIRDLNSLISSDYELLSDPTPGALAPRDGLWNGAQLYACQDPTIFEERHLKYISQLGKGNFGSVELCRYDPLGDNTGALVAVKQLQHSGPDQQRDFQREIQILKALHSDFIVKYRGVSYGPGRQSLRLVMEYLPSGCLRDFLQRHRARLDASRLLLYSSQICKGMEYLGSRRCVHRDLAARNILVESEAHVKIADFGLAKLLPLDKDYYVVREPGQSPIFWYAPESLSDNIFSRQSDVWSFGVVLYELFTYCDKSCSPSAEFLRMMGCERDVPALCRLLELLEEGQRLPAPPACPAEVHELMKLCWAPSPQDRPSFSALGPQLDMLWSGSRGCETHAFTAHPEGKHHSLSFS
Type: biochemical
Procedure: Compounds were screened for their ability to inhibit JAK3 according to the method described by G. R. Brown, et al, Bioorg. Med. Chem. Lett. 2000, vol. 10, pp 575–579 in the following manner. Into Maxisorb plates, previously coated at 4° C. with Poly (Glu, Ala, Tyr) 6:3:1 then washed with phosphate buffered saline 0.05% and Tween (PBST), was added 2 μM ATP, 5 MM MgCl2, and a solution of compound in DMSO. The reaction was started with JAK enzyme and the plates incubated for 60 minutes at 30° C. The plates were then washed with PBST, 100 μL HRP-Conjugated 4G10 antibody was added, and the plate incubated for 90 minutes at 30° C. The plate was again washed with PBST, 100 μL TMB solution is added, and the plates were incubated for another 30 minutes at 30° C. Sulfuric acid (100 μL of 1M) was added to stop the reaction and the plate is read at 450 nm to obtain the optical densities for analysis to determine Ki values.

`CN1C(=O)COc2ccc(-c3ccnc(Nc4ccccc4)n3)cc21` [IVa-1] and `CN1C(=O)COc2ccc(-c3ccnc(Nc4cccc(F)c4)n3)cc21` [IVa-2] cannot be ordered by Ki: less than 1 µM for the first, less than 5 µM for the second.

`Cc1cccc(Nc2nccc(-c3ccc4c(c3)N(C)C(=O)CO4)n2)c1` [IVa-3] and `CN1C(=O)COc2ccc(-c3ccnc(Nc4cccc(O)c4)n3)cc21` [IVa-27] cannot be ordered by Ki: less than 1 µM for the first, less than 1 µM for the second.

`Cc1ccc(Nc2nccc(-c3ccc4c(c3)N(C)C(=O)CO4)n2)cc1` [IVa-4] and `COc1ccc(Nc2nccc(-c3ccc4c(c3)N(C)C(=O)CO4)n2)cc1` [IVa-5] cannot be ordered by Ki: less than 5 µM for the first, less than 5 µM for the second.

`Cc1cc(C)cc(Nc2nccc(-c3ccc4c(c3)N(C)C(=O)CO4)n2)c1` [IVa-6] and `COc1cc(Nc2nccc(-c3ccc4c(c3)N(C)C(=O)CO4)n2)cc(OC)c1` [IVa-7] cannot be ordered by Ki: less than 1 µM for the first, less than 1 µM for the second.

`O=C1COc2ccc(-c3ccnc(Nc4cccc(F)c4)n3)cc2N1` [IVa-10] and `COc1cccc(Nc2nccc(-c3ccc4c(c3)NC(=O)CO4)n2)c1` [IVa-14] cannot be ordered by Ki: less than 5 µM for the first, less than 1 µM for the second.

`O=C1COc2ccc(-c3ccnc(Nc4ccc(F)cc4)n3)cc2N1` [IVa-11] and `O=C1COc2ccc(-c3ccnc(Nc4ccc(Cl)cc4)n3)cc2N1` [IVa-13] cannot be ordered by Ki: less than 5 µM for the first, less than 5 µM for the second.

`Cc1ccccc1Nc1nccc(-c2ccc3c(c2)NC(=O)CO3)n1` [IVa-15] and `NS(=O)(=O)c1cccc(Nc2nccc(-c3ccc4c(c3)NC(=O)CO4)n2)c1` [IVa-21] cannot be ordered by Ki: less than 1 µM for the first, less than 1 µM for the second.

`CN1C(=O)COc2ccc(-c3ccnc(Nc4cccc(S(N)(=O)=O)c4)n3)cc21` [IVa-22] and `CN1C(=O)COc2ccc(-c3ccnc(Nc4cccc(C(N)=O)c4)n3)cc21` [IVa-25] cannot be ordered by Ki: less than 1 µM for the first, less than 1 µM for the second.

`CN1C(=O)COc2ccc(-c3ccnc(Nc4cccc(C#N)c4)n3)cc21` [IVa-26] and `COc1cccc(Nc2nccc(-c3ccc4c(c3)N(C)C(=O)CO4)n2)c1` [IVa-28] cannot be ordered by Ki: less than 5 µM for the first, less than 1 µM for the second.

`O=C1COc2ccc(-c3ccnc(Nc4ccccc4)n3)cc2N1CCN1CCOCC1` [IVa-29] and `O=C1COc2ccc(-c3ccnc(Nc4cccc(F)c4)n3)cc2N1CCN1CCOCC1` [IVa-30] cannot be ordered by Ki: less than 5 µM for the first, less than 5 µM for the second.

`O=C1COc2ccc(-c3ccnc(Nc4cccc(Cl)c4)n3)cc2N1CCN1CCOCC1` [IVa-31] and `O=C1COc2ccc(-c3ccnc(Nc4cccc(O)c4)n3)cc2N1CCN1CCOCC1` [IVa-32] cannot be ordered by Ki: less than 5 µM for the first, less than 5 µM for the second.

`COc1cccc(Nc2nccc(-c3ccc4c(c3)N(CCN3CCOCC3)C(=O)CO4)n2)c1` [IVa-36] and `NS(=O)(=O)c1ccc(Nc2nccc(-c3ccc4c(c3)N(CCN3CCOCC3)C(=O)CO4)n2)cc1` [IVa-39] cannot be ordered by Ki: less than 5 µM for the first, less than 5 µM for the second.

`O=C1COc2ccc(-c3ccnc(Nc4ccccc4)n3)cc2N1Cc1cccnc1` [IVa-41] and `O=C1COc2ccc(-c3ccnc(Nc4cccc(Cl)c4)n3)cc2N1Cc1cccnc1` [IVa-43] cannot be ordered by Ki: less than 5 µM for the first, less than 5 µM for the second.

`O=C1COc2ccc(-c3ccnc(Nc4cccc(O)c4)n3)cc2N1Cc1cccnc1` [IVa-44] and `NC(=O)c1cccc(Nc2nccc(-c3ccc4c(c3)N(Cc3cccnc3)C(=O)CO4)n2)c1` [IVa-53] cannot be ordered by Ki: less than 1 µM for the first, less than 1 µM for the second.

`COc1cccc(Nc2nccc(-c3ccc4c(c3)N(Cc3cccnc3)C(=O)CO4)n2)c1` [IVa-45] and `COC(=O)c1cccc(Nc2nccc(-c3ccc4c(c3)N(Cc3cccnc3)C(=O)CO4)n2)c1` [IVa-46] cannot be ordered by Ki: less than 5 µM for the first, less than 5 µM for the second.

`N#Cc1cccc(Nc2nccc(-c3ccc4c(c3)N(Cc3cccnc3)C(=O)CO4)n2)c1` [IVa-47] and `NS(=O)(=O)c1cccc(Nc2nccc(-c3ccc4c(c3)N(Cc3cccnc3)C(=O)CO4)n2)c1` [IVa-50] cannot be ordered by Ki: less than 5 µM for the first, less than 5 µM for the second.

`O=C1COc2ccc(-c3ccnc(Nc4cccc(-c5ccccc5)c4)n3)cc2N1Cc1cccnc1` [IVa-48] and `O=C1COc2ccc(-c3ccnc(Nc4cccc(-c5ccccc5)c4)n3)cc2N1Cc1ccccn1` [IVa-59] cannot be ordered by Ki: less than 5 µM for the first, less than 5 µM for the second.

`NS(=O)(=O)c1ccc(Nc2nccc(-c3ccc4c(c3)N(Cc3cccnc3)C(=O)CO4)n2)cc1` [IVa-51] and `NS(=O)(=O)c1ccc(Nc2nccc(-c3ccc4c(c3)N(Cc3ccncc3)C(=O)CO4)n2)cc1` [IVa-71] cannot be ordered by Ki: less than 1 µM for the first, less than 1 µM for the second.

`Cc1cc(C)cc(Nc2nccc(-c3ccc4c(c3)N(Cc3cccnc3)C(=O)CO4)n2)c1` [IVa-52] and `Cc1cc(C)cc(Nc2nccc(-c3ccc4c(c3)N(Cc3ccncc3)C(=O)CO4)n2)c1` [IVa-72] cannot be ordered by Ki: less than 5 µM for the first, less than 5 µM for the second.

`O=C1COc2ccc(-c3ccnc(Nc4cccc(F)c4)n3)cc2N1Cc1ccccn1` [IVa-55] and `O=C1COc2ccc(-c3ccnc(Nc4cccc(Cl)c4)n3)cc2N1Cc1ccccn1` [IVa-56] cannot be ordered by Ki: less than 5 µM for the first, less than 5 µM for the second.

`COc1cccc(Nc2nccc(-c3ccc4c(c3)N(Cc3ccccn3)C(=O)CO4)n2)c1` [IVa-57] and `COC(=O)c1cccc(Nc2nccc(-c3ccc4c(c3)N(Cc3ccccn3)C(=O)CO4)n2)c1` [IVa-58] cannot be ordered by Ki: less than 1 µM for the first, less than 5 µM for the second.

`O=C1COc2ccc(-c3ccnc(Nc4cccc(Oc5ccccc5)c4)n3)cc2N1Cc1ccccn1` [IVa-60] and `O=C1COc2ccc(-c3ccnc(Nc4cccc(Cl)c4)n3)cc2N1Cc1ccncc1` [IVa-66] cannot be ordered by Ki: less than 5 µM for the first, less than 5 µM for the second.

Compound `NS(=O)(=O)c1cccc(Nc2nccc(-c3ccc4c(c3)N(Cc3ccncc3)C(=O)CO4)n2)c1` [IVa-70] has a Ki of less than 5 µM.

The compounds below were run against CDK-2/Cyclin A (Homo sapiens, UniProt P24941) (assay: CDK2 inhibition assay (coupled enzyme assay)). Settings: 100 μM ATP, 25 nM CDK-2/Cyclin A.
Type: biochemical
Procedure: Compounds were screened for their ability to inhibit CDK-2/Cyclin A using a standard coupled enzyme assay (Fox et al (1998) Protein Sci 7, 2249). Reactions were carried out in 100 mM HEPES pH 7.5, 10 mM MgCl2, 25 mM NaCl, 1 mM DTT and 1.5% DMSO. Final substrate concentrations in the assay were 100 μM ATP (Sigma chemicals) and 100 μM peptide (American Peptide, Sunnyvale, Calif.). Assays were carried out at 30° C. and 25 nM CDK-2/Cyclin A. Final concentrations of the components of the coupled enzyme system were 2.5 mM phosphoenolpyruvate, 350 μM NADH, 30 μg/ml pyruvate kinase and 10 μg/ml lactate dehydrogenase.
An assay stock buffer solution was prepared containing all of the reagents listed above, with the exception of CDK-2/Cyclin A, DTT and the test compound of interest. 56 μl of the test reaction was placed in a 384 well plate followed by addition of 1 μl of 2 mM DMSO stock containing the test compound (final compound concentration 30 μM). The plate was preincubated for ˜10 minutes at 30° C. and the reaction initiated by addition of 10 μl of enzyme (final concentration 25 nM). Rates of reaction were obtained using a BioRad Ultramark plate reader (Hercules, Calif.) over a 5 minute read time at 30° C. Compounds showing >50% inhibition versus standard wells containing DMSO, but no compound, were titrated and IC50's determined using a similar protocol.

`CN1C(=O)COc2ccc(-c3ccnc(Nc4cccc(S(N)(=O)=O)c4)n3)cc21` [IVa-22] gave a Ki of less than 1 µM.
